Laboratory results as given in article PMC6895180 (Nature Communications, 2019).
Values joined by “and” are separate entries in the source; they are usually repeats but may differ in a detail not shown here. Equal entries are not always repeated. Where two headings read alike, the source gives them in different places.

Assays:
[1] = tested on: RNAi clones targeting adenosine kinase (ADKIN; Tb927.6.2300) in T. brucei NY-SM cells; assay: Susceptibility of ADKIN RNAi clones (tetracycline-induced / non-induced); format: cell-based, Trypanosoma brucei brucei; settings: for IC50: single determinations
Description: (§1) Susceptibility assays with NY-SM[51], BS221[48] and TbAT1-KO[48] (derived from BS221) cells were performed using 10 concentrations of a 4-fold compound dilution series starting at 64 µM. Parasites were seeded at 4 × 10^3 parasites per well and exposed to drug compound for 72 h, after which resazurin (final concentration of 10 µg mL^−1) was added to the plates. Fluorescence intensities were determined after 6 h.
(§2) The RNAi library[54] was induced for 68 h by the addition of 1 µg mL^−1 of tetracycline. After induction, the cells were exposed to different concentrations of 9 (corresponding to the IC98, IC99). Cells were maintained until a recovery of the resistant population was observed. Genomic DNA of the resistant parasite population was isolated, and the RNAi inserts were identified by PCR amplification, followed by cloning in highly competent Escherichia coli and sequencing. To validate the involvement of the identified genes, the RNAi inserts were back-cloned into a p2T7Bern vector[54] and transformed into NY-SM cells (the background strain of the RNAi library). The transformed NY-SM cells were cloned by limiting dilution. Two clones of each RNAi insert were exposed to tetracycline to induce the RNAi phenotype and subsequently subjected to different concentrations of 9 to determine the susceptibility of induced versus non-induced clones.
(§3) Drug susceptibility assays with induced clones were performed as described above for NY-SM cells, with an initial induction period of 68 h with 1 µg mL^−1 tetracycline prior to the start of the drug susceptibility assay.

[2] = tested on: RNAi clones targeting FLA1BP, EndoG, RHS5, BCKDHA in T. brucei NY-SM cells; assay: Susceptibility of RNAi clones targeting FLA1BP, EndoG, RHS5, BCKDHA; format: cell-based, Trypanosoma brucei brucei
Description: as §1, §2, §3
Supplementary Figure 6: Drug sensitivity of RNAi clones
Supplementary Figure 6: Drug susceptibility of RNAi clones targeting (A) FLA1BP (FLA1 binding protein), (B) EndoG (Endonuclease G), (C) RHS5 (Retrotransposon Hotspotprotein 5), (D) BCKDHA (branched chain keto acid dehydrogenase, i.e. 2-oxoisovalerate dehydrogenase). Results are expressed as the mean IC50 (µM) ± SEM and are based on two independent experiments with two biological replicates. + = tetracycline-induced clones. - = non-induced clones. All experiments were performed with two independent RNAi clones (A and B). Source data are provided as a Source Data file. […]

[3] = Metabolic stability, pooled human liver microsomes (phase I and II)
Description: Mouse, rat, and pooled human liver microsomes were purchased from a commercial source (Corning) and stored at -80 °C. NADPH generating system solutions A and B and UGT reaction mix solutions A and B (Corning) were kept at -20°C. The test compound and the reference compounds diclofenac (MW […]
microsomal stability assay was carried out based on the BD Biosciences Guidelines for Use (TF000017 Rev1.0) with minor adaptations. Metabolic stability of the compounds was studied through the CYP450 superfamily (phase I metabolism) by fortification with reduced nicotinamide adenine dinucleotide phosphate (NADPH) and through uridine glucuronosyl-transferase (UGT) enzymes (phase II metabolism) by fortification with uridine diphosphate glucuronic acid (UDPGA). For the CYP450 and other NADPH dependent enzymes, both compounds were incubated at 5 µM together with 0.5 mg mL-1 liver microsomes in potassium phosphate buffer in a reaction started by the addition of 1 mM NADPH […]
At these time points, 20 µL was withdrawn from the reaction mixture and 80 µL cold acetonitrile (ACN) containing the internal standard tolbutamide, was added to inactivate the enzymes and precipitate the proteins. The mixture was vortexed for 30 s and centrifuged at 4 °C for 5 min at 15,000 rpm. The supernatant was stored at -80°C until analysis. For the UGT enzymes, both compounds were incubated at 5 µM together with 0.5 mg mL-1 liver microsomes in a reaction started by the addition of 2 mM UDPGA cofactor. The corresponding loss of parent compound was determined using liquid chromatography (UPLC) (Waters AquityTM) coupled with tandem quadrupole mass spectrometry (MS²) (Waters XevoTM), equipped with an electrospray ionization (ESI) interface and operated in multiple reaction monitoring (MRM) mode. […]

SMILES: Nc1ncnc2c1ccn2[C@@H]1O[C@H](CO)C[C@H]1O [Compound 9, 3’-deoxytubercidin]
- fold reduced susceptibility in ADKIN knockdown cell lines [1]: ~ 20 fold
- Inhibition (%) ([1]; ADKIN A +, 0.000976563 µM): 2.55%
- Inhibition (%) ([1]; ADKIN A +, 0.00390625 µM): 2.6%
- Inhibition (%) ([1]; ADKIN A +, 0.0625 µM): 42% and 36% and 30%
- Inhibition (%) ([1]; ADKIN A +, 0.25 µM): 91% and 95%
- Inhibition (%) ([1]; ADKIN B +, 0.25 µM): 93% and 91% and 98%
- inhibition at 0.0625 µM ([1]; Trypanosoma brucei, ADKIN A +, 0.0625 µM): 33%
- inhibition at 0.25 µM ([1]; Trypanosoma brucei, ADKIN A +, 0.25 µM): 94%
- inhibition at 1 µM ([1]; Trypanosoma brucei, ADKIN A +): 99%
- inhibition at 4 µM ([1]; Trypanosoma brucei, ADKIN A +): 99%
- inhibition at 16 µM ([1]; Trypanosoma brucei, ADKIN A +): 100%
- inhibition at 64 µM ([1]; Trypanosoma brucei, ADKIN A +): 99%
- inhibition at 0.000244141 µM ([1]; Trypanosoma brucei, ADKIN B +, 0.000244141 µM): 0%
- inhibition at 0.000976563 µM ([1]; Trypanosoma brucei, ADKIN B +, 0.000976563 µM): 0%
- inhibition at 0.00390625 µM ([1]; Trypanosoma brucei, ADKIN B +, 0.00390625 µM): 0%
- inhibition at 0.015625 µM ([1]; Trypanosoma brucei, ADKIN B +, 0.015625 µM): 0%
- inhibition at 0.25 µM ([1]; Trypanosoma brucei, ADKIN B +, 0.25 µM): 96%
- inhibition at 1 µM ([1]; Trypanosoma brucei, ADKIN B +): 99%
- inhibition at 4 µM ([1]; Trypanosoma brucei, ADKIN B +): 99%
- inhibition at 16 µM ([1]; Trypanosoma brucei, ADKIN B +): 100%
- inhibition at 64 µM ([1]; Trypanosoma brucei, ADKIN B +): 100%
- EC50 ([1]; Trypanosoma brucei, read-out: EC50, ADKIN RNAi clones before knockdown): 7.7 ± 0.17 nM
- EC50 ([1]; Trypanosoma brucei, read-out: EC50 upon ADKIN knockdown): 100 ± 5 nM
- IC50 ([1]; Trypanosoma brucei, read-out: IC50, ADKIN A +, clone A, tetracycline-induced): 101 nM
- IC50 ([1]; Trypanosoma brucei, read-out: IC50, ADKIN A -, clone A, non-induced): 6.9 nM
- IC50 ([1]; Trypanosoma brucei, read-out: IC50, ADKIN B +, clone B, tetracycline-induced): 98.5 nM
- IC50 ([1]; read-out: IC50, ADKIN A +, clone A, tetracycline-induced): 117 nM and 123 nM and 92 nM and 78.4 nM and 88.9 nM and 95.7 nM and 111 nM
- IC50 ([1]; read-out: IC50, ADKIN A -, clone A, non-induced): 7.7 nM and 7.2 nM and 8.1 nM and 7.9 nM and 8.3 nM and 7.8 nM and 7.4 nM
- IC50 ([1]; read-out: IC50, ADKIN B +, clone B, tetracycline-induced): 110 nM and 121 nM and 120 nM (2×) and 109 nM and 132 nM and 127 nM
- susceptibility of tetracycline-induced versus non-induced clones, remaining four constructs [2]: no significant differences
- IC50 ([2]; BCKDHA RNAi clone A +): 7.45 nM
- IC50 ([2]; BCKDHA RNAi clone A -): 7.58 nM and 7.81 nM
- IC50 ([2]; BCKDHA RNAi clone B -): 7.47 nM
- IC50 ([2]; EndoG RNAi clone A +): 7.75 nM
- IC50 ([2]; EndoG RNAi clone A -): 8.23 nM and 7.93 nM and 7.81 nM
- IC50 ([2]; EndoG RNAi clone B +): 7.63 nM and 7.94 nM and 8.26 nM
- IC50 ([2]; EndoG RNAi clone B -): 7.81 nM
- IC50 ([2]; FLA1BP RNAi clone A -): 6.66 nM
- IC50 ([2]; FLA1BP RNAi clone B +): 7.81 nM and 7.59 nM
- IC50 ([2]; FLA1BP RNAi clone B -): 7.64 nM and 7.01 nM
- IC50 ([2]; RHS5 RNAi clone A +): 8.05 nM and 7.59 nM
- IC50 ([2]; RHS5 RNAi clone A -): 7.93 nM
- IC50 ([2]; RHS5 RNAi clone B +): 8.37 nM and 7.06 nM
- IC50 ([2]; Trypanosoma brucei, BCKDHA RNAi clone A +): 7.99 nM
- IC50 ([2]; Trypanosoma brucei, BCKDHA RNAi clone A -): 7.98 nM
- IC50 ([2]; Trypanosoma brucei, BCKDHA RNAi clone B +): 8.39 nM
- IC50 ([2]; Trypanosoma brucei, BCKDHA RNAi clone B -): 7.41 nM
- IC50 ([2]; Trypanosoma brucei, EndoG RNAi clone A +): 8.04 nM
- IC50 ([2]; Trypanosoma brucei, EndoG RNAi clone A -): 8.17 nM
- IC50 ([2]; Trypanosoma brucei, EndoG RNAi clone B +): 8.04 nM
- IC50 ([2]; Trypanosoma brucei, EndoG RNAi clone B -): 7.92 nM
- IC50 ([2]; Trypanosoma brucei, FLA1BP RNAi clone A +): 8.1 nM
- IC50 ([2]; Trypanosoma brucei, FLA1BP RNAi clone A -): 7.7 nM
- IC50 ([2]; Trypanosoma brucei, FLA1BP RNAi clone B +): 8.04 nM
- IC50 ([2]; Trypanosoma brucei, FLA1BP RNAi clone B -): 7.46 nM
- IC50 ([2]; Trypanosoma brucei, RHS5 RNAi clone A +): 8.1 nM
- IC50 ([2]; Trypanosoma brucei, RHS5 RNAi clone A -): 7.87 nM
- IC50 ([2]; Trypanosoma brucei, RHS5 RNAi clone B +): 8.3 nM
- IC50 ([2]; Trypanosoma brucei, RHS5 RNAi clone B -): 7.76 nM
- % analogue 9 remaining, EXP 1 / EXP 2 ([3]; microsomes, 0 min, 5 µM): 100%
- % analogue 9 remaining, Mean ([3]; microsomes, 0 min, 5 µM): 100%
- metabolic stability ([3]; s9, 0.5 h): metabolically stable
